# Data from US6989270B1, “Using polyamide nucleic acid oligomers to engender a biological response” (Mayo Foundation for Medical Education and Research, priority 1997, dated 2006).
# Experiments:
# [1] = tested on: NTR1 cDNA synthesis from total brain RNA; assay: In vitro reverse transcription assay; type: biochemical, rat; details: 1 μg total brain RNA incubated with 600 ng PNA
# Protocol: An in vitro reverse transcription assay was performed-as follows. Total RNA was isolated from 20 mg of tissue using the RNeasy Kit (Qiagen, Chatsworth, Calif.). After isolation, total RNA (lug) was incubated with the PNA oligomers (600 ng) at 40° C. for 40 minutes. Exogenous cRNA standards were added, and cDNA was synthesized using the cDNA Cycle Kit and gene-specific primers for NTR1 and GAPDH (Invitrogen, Carlsbad, Calif.). The exogenous cRNA standards were synthesized from dsDNA templates using the Megashort-Script Kit (Ambion, Austin, Tex.). The dsDNA templates for exogenous cRNA standards for the NTR1- and GAPDH-specific cDNA reactions were constructed using the PCR MIMIC Construction Kit (Clontech) and composite primers. […] After using the cDNA Cycle Kit, quantitative PCR was performed on each sample. […] Products were detected using a Storm860 Phosphoimager (Molecular Dynamics, Sunnyvale, Calif.) and data were analyzed using Image Quant Software (Molecular Dynamics, Sunnyvale, Calif.).
# Using this in vitro reverse transcription assay, 1 μg of total RNA isolated from the brain of an untreated rat was incubated with 600 ng of the AS-NTR1-PNA or mismatch-AS-NTR1PNA oligomer and NTR1 cDNA production assessed. […]
# [2] = Gel shift assay measuring PNA oligomer in tissue; type: in vivo
# Protocol: To confirm the presence and measure the amount of PNA in brain after extracranial administration, a sensitive gel shift assay was developed. This assay involves using a radioactively-labeled oligonucleotide having sequence specificity for a PNA oligomer as a probe to detect that PNA oligomer. Briefly, a sample is prepared and incubated with a probe. If the sample contains a PNA oligomer having sequence specificity for the probe, then the probe can bind that PNA oligomer. This bound form of the probe then can be detected and quantified using gel electrophoresis since a probe bound to a PNA oligomer migrates differently than an unbound probe on a gel.
# Brain extracts were prepared from either untreated animals or animals treated intraperitoneally with 10 mg/kg of the AS-NTR1-PNA oligomer. For the treated animals, brain tissue was collected 8 hours post treatment. To prepare brain extracts, flash frozen brain tissue (minus the PAG and hypothalamus) were homogenized in 1 mM Tris (pH 4.0), 0.1 mM EDTA at a concentration of 1.5 ml/g wet weight of tissue. This acidic condition can protonate cytosine bases as well as the N-terminal amino group of the PNA oligomer, which presumably increases the solubility of the PNA oligomer and allows the PNA oligomer to be found in an aqueous phase during the later extraction step. Samples were boiled for five minutes. This boiling step can free the bound PNA oligomer from its target sequence, and inactivate nucleases that may interfere with the integrity of the DNA oligonucleotide probe. Then, the samples were spun two to three times at 35,600×g for 10 minutes each to pellet insoluble material and the supernatants collected. Supernatants were extracted with 10 volumes of CHCl3:MeOH (2:1 v/v) to remove glycolipids that may interfere with gel electrophoresis, and spun briefly at 1,000×g to separate phases. For the standard curves using known amounts of a PNA oligomer, the PNA oligomer was added to the supernatant before the CHCl3:MeOH extraction. The supernatants were collected in a fresh tube, lyophilized, and resuspended in 30 to 40 μl of water.
# Once prepared, approximately 400 pg of probe was added to each 30 to 40 μl sample. To prepare the probe, a DNA oligonucleotide (Gibco BRL, Gaithersburg, Md.) complementary to the AS-NTR1-PNA oligomer was end-labeled using T4 Polynucleotide Kinase (Gibco BRL) and [Gamma-^32P]ATP or [Gamma-^33P]ATP (New England Nuclear, Boston, Mass.) according to manufacturer's instructions. […]
# After adding the probe, the samples were incubated at room temperature for 20 minutes. […] Signal was detected using a Storm860 Phosphoimager (Molecular Dynamics, Sunnyvale, Calif.) and data were analyzed using ImageQuant Software (Molecular Dynamics, Sunnyvale, Calif.). […]
# [3] = tested on: neurotensin receptor-1 (NTR1); assay: Hot plate test of NT-mediated anti-nociception in PNA-treated rats; type: in vivo, rat
substance,measurement,setting,value
"NTR1-PNA: 12-mer antisense PNA oligomer to rat NTR1 coding region, 5′-CATTGCTCAAAC-3′ (SEQ ID NO: 1) (all peptide nucleic acid (PNA))",reduction in NTR1 cDNA synthesis,[1],65%
same,integrity of PNA oligomer recovered from brain (gel mobility shift),[2]; 8 hours after i.p. 10 mg/kg,unaltered
same,presence of PNA oligomer in brain extracts,"[2]; 8 hours after i.p. 10 mg/kg, perfused and non-perfused animals",detected in brain extracts prepared from treated animals
same,concentration of PNA oligomer within brain,"[2]; 8 hours after intraperitoneal 10 mg/kg, corrected for recovery",2.4±0.3 ng/whole brain
same,"presence of PNA oligomer in brain, heart, kidney, liver, spleen and blood","[2]; tissues 2 hours after i.p. 10 mg/kg (perfused), blood 5 minutes after i.v. 10 mg/kg",detected in each tissue
same,duration of complete lack of NT responsiveness,[3]; after single oral 10 mg/kg,at least 48 hours
same,ED50 for reducing NT anti-nociception,"[3]; intraperitoneal dose-response, one batch of PNA",2.6 mg/kg
same,responsiveness to NT challenge (anti-nociception and hypothermia),[3]; one day after single i.p. injection of 3 mg/kg,unable to respond to NT challenge
same,NT responsiveness,"[3]; rats given single oral 10 mg/kg, Table III",LOST
same,hypothermic and anti-nociceptive responses to NT,"[3]; twelve hours after 10 mg/kg by gastric intubation (oral), nine rats",either completely abolished (8/9) or nearly completely abolished (1/9)
